Data published in the supplement of paper PMC11208160.

test: recombinant UMI read abundance after kanamycin selection (control-corrected) (log10(CPM+1)); higher = more efficient recombination; extreme values may be limits of the assay; sequences stand for … in AGTGCAGAGAAAATCGGCCAGTTTTCTCTGCCTGCAGTCCGCATGCCGTGGGACCCCTTGGGTTCTAACCTGTTGCCTAGATTTATGCAGCGGACTGCCTTTCTCCCAAAGTGATAAACCGG…AGGTTGGTTTCACT; site = the 11-nt donor
Outline: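 Two replicates each of selected and unselected plating were used in this pooled Escherichia coli screen of donor and donor-binding-loop pairs for the IS621 bridge recombinase. Selection was with IPTG (0.07 mM) and kanamycin. Counts of recombinant UMIs, amplified across the donor–target junction, were converted to CPM, averaged, scaled by control-derived factors and reported as log10(CPM+1).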
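Also: IS621 bridge recombinase in Escherichia coli cells against a fixed T5 target plasmid.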

Sequence	recombinant UMI read abundance (log10)
CCGTTAGCATGGACCGGTTTTCCCGGTAATCCGTATTTGTG (site CCGATAGCTCA)	0.0175
CCGTTAGCATGGACCGGTTTTCCCGGTAATCCGTATTTGTG (site CCGCTAGCTCA)	0.00432
CCGTTAGCATGGACCGGTTTTCCCGGTAATCCGTATTTGTG (site CCGGTAGCTCA)	0.014
CCGTTAGCATGGACCGGTTTTCCCGGTAATCCGTATTTGTG (site CCGTAAGCTCA)	0.00568
CCGTTAGCATGGACCGGTTTTCCCGGTAATCCGTATTTGTG (site CCGTCAGCTCA)	0.0147
CCGTTAGCATGGACCGGTTTTCCCGGTAATCCGTATTTGTG (site CCGTGAGCTCA)	0.0389
CCGTTAGCATGGACCGGTTTTCCCGGTAATCCGTATTTGTG (site CCGTTAACTCA)	0.0199
CCGTTAGCATGGACCGGTTTTCCCGGTAATCCGTATTTGTG (site CCGTTACCTCA)	0
CCGTTAGCATGGACCGGTTTTCCCGGTAATCCGTATTTGTG (site CCGTTAGCTAA)	0.0124
CCGTTAGCATGGACCGGTTTTCCCGGTAATCCGTATTTGTG (site CCGTTAGCTCA)	0.386
CCGTTAGCATGGACCGGTTTTCCCGGTAATCCGTATTTGTG (site CCGTTAGCTCC)	0.0262
CCGTTAGCATGGACCGGTTTTCCCGGTAATCCGTATTTGTG (site CCGTTAGCTCG)	0
CCGTTAGCATGGACCGGTTTTCCCGGTAATCCGTATTTGTG (site CCGTTAGCTCT)	0
CCGTTAGCATGGACCGGTTTTCCCGGTAATCCGTATTTGTG (site CCGTTAGCTGA)	0
CCGTTAGCATGGACCGGTTTTCCCGGTAATCCGTATTTGTG (site CCGTTAGCTTA)	0
CCGTTAGCATGGACCGGTTTTCCCGGTAATCCGTATTTGTG (site CCGTTATCTCA)	0
CCGTTAGCATGGACCGGTTTTCCCGGTAATCCGTATTTGTG (site CCGTTCGCTCA)	0
CCGTTAGCATGGACCGGTTTTCCCGGTAATCCGTATTTGTG (site CCGTTGGCTCA)	0.0165
CCGTTAGCATGGACCGGTTTTCCCGGTAATCCGTATTTGTG (site CCGTTTGCTCA)	0.00521

Sequence	recombinant UMI read abundance (log10)
CCGTTAGCATGGACCGGTTTTCCCGGTAATCCGTATTTGTG (site CCTTTAGCTCA)	0.015
CCGTTAGCATGGACCGGTTTTCCCGGTAATCCGTATTTGTG (site CGGTTAGCTCA)	0.00954
CCGTTAGCATGGACCGGTTTTCCCGGTAATCCGTATTTGTG (site CTGTTAGCTCA)	0.164
CCGTTAGCATGGACCGGTTTTCCCGGTAATCCGTATTTGTG (site GCGTTAGCTCA)	0
CCGTTAGCATGGACCGGTTTTCCCGGTAATCCGTATTTGTG (site TCGTTAGCTCA)	0.00762
CCGTTCGCATGGACCGGTTTTCCCGGTAATCCGTATTTGTA (site CCGTTCGCTTA)	0.827
CCGTTCTCATGGACCGGTTTTCCCGGTAATCCGTATTTGGG (site CCATTCTCTCC)	0.00249
CCGTTCTCATGGACCGGTTTTCCCGGTAATCCGTATTTGGG (site CCCTTCTCTCC)	0
CCGTTCTCATGGACCGGTTTTCCCGGTAATCCGTATTTGGG (site CCGTTCTCTCC)	0
CCGTTCTCATGGACCGGTTTTCCCGGTAATCCGTATTTGGG (site CCTTTCTCTCC)	0
CCGTTGACATGGACCGGTTTTCCCGGTAATCCGTATTTGCT (site CCGTTAACTAG)	0
CCGTTGACATGGACCGGTTTTCCCGGTAATCCGTATTTGCT (site CCGTTCACTAG)	0
CCGTTGACATGGACCGGTTTTCCCGGTAATCCGTATTTGCT (site CCGTTGACTAG)	1.05
CCGTTGACATGGACCGGTTTTCCCGGTAATCCGTATTTGCT (site CCGTTTACTAG)	0
CCGTTTACATGGACCGGTTTTCCCGGTAATCCGTATTTGCC (site CCGTTTACTAG)	0
CCGTTTACATGGACCGGTTTTCCCGGTAATCCGTATTTGCC (site CCGTTTACTCG)	0
CCGTTTACATGGACCGGTTTTCCCGGTAATCCGTATTTGCC (site CCGTTTACTGG)	0
CCGTTTACATGGACCGGTTTTCCCGGTAATCCGTATTTGCC (site CCGTTTACTTG)	0
